Assay results reported in patent publication US20050164308A1, “Beta-lactamase CD4+ T-cell epitopes” (priority 2003, published 2005).

Assays:
CD4+ T-cells [1] = assay: I-MUNE assay: proliferation of CD4+ T-cells with differentiated dendritic cells in response to beta-lactamase 15-mer peptides; type: cell-based, human
[2] = tested on: HLA-DRB1 and DQB1 antigens; assay: HLA association with responses to epitope peptides; set-up: species or system human
Method: HLA-DR and DQ types were analyzed for associations with responses to defined epitope peptides. A Chi-squared analysis, with one degree of freedom was used to determine significance. Where an allele was present in both the responder and non-responder pools, a relative risk was calculated.
The HLA-DR and DQ expression of 65 of the donors tested in both rounds of assay testing described above were assessed using a commercially available PCR-based HLA typing kit (Bio-Synthesis). […] Wherever the HLA antigen was present in both reactive and non-reactive donors, a relative risk (i.e., the increased or decreased likelihood of presenting a reaction conditioned on the presence of the HLA antigen) was computed. […] In addition, the mean and standard error of quantitative response for each peptide were determined.
The magnitude of the proliferative response to an individual peptide in responders and non-responders expressing epitope-associated HLA alleles were also be analyzed. An “individual responder to the peptide” is defined by a stimulation index of greater than 2.95.

CD4+ T-cells [3] = type: cell-based, human; conditions: for effect of the change on the percent of responders to the modified epitope sequence: epitope #49 substitution, 69 donors

“#107 (TGGFGSYVAFIPEKQ; listed as Enterobacter cloacae)” was tested, and the “response (percent responders)” value (CD4+ T-cells [1]) was 12.11%, the “response of DR13 non-responders lower than the other genotypes” value ([2]; among non-responders) was 23% and the “increase of quantitative response in DR1+ relative to DR1- responders” value ([2]; donors reactive to the peptide) was 27%. The “quantitative response of DR1+ responders” value ([2]; donors reactive to the peptide) was 5.4 and the “quantitative response of DR1- responders” value ([2]; donors reactive to the peptide) was 4.2.

For “GTTRLYANASFGLFG (beta-lactamase epitope) [Peptide I155F, peptide #49 with the substitution I155F]”, the “effect of the change on the percent of responders to the modified epitope sequence” value (CD4+ T-cells [3]) was “little effect”.

With tetanus toxoid [reference compound] the “positive control proliferative response” value (CD4+ T-cells [1]; approximately 5 Lf/mL) was “robust positive control responses”.

For “GTTRSYANASIGLFG (variant of SEQ ID NO82) [Peptide L149S, peptide #49 with the substitution L149S]”, the “effect on the epitope response rate” value (CD4+ T-cells [3]) was “had an effect”.

In the case of “#36 (MLDLATYTAGGLPLQ; listed as Enterobacter cloacae)”, the “response (percent responders)” value (CD4+ T-cells [1]) is reported as 12.11%, the “quantitative response of DR1+ responders” value ([2]; donors reactive to the peptide) is reported as 7.8 and the “quantitative response of DR1- responders” value ([2]; donors reactive to the peptide) is reported as 4.42.

“GTTRLYANASVGLFG (beta-lactamase epitope) [Peptide I155V, peptide #49 with the substitution I155V]” was tested, and the “effect of the change on the percent of responders to the modified epitope sequence” value (CD4+ T-cells [3]) was “increased the percent of responders”.

In the case of “GTTRLYANASLGLFG (beta-lactamase epitope) [Peptide I155L, peptide #49 with the substitution I155L]”, the “effect of the change on the percent of responders to the modified epitope sequence” value (CD4+ T-cells [3]) is reported as “little effect”.
